Source: ChEMBL document CHEMBL4428025 (J Med Chem, 2016)

Legend:
[1] = Oral bioavailability in cynomolgus monkey at 0.3 mg/kg; type: ADME, organism-based, Macaca fascicularis; conditions: in vivo
[2] = Oral bioavailability in Wistar rat at 0.3 mg/kg; type: ADME, organism-based; conditions: in vivo
[3] = Ratio of drug level in brain to plasma in CD rat at 10 to 70 mg/kg, po administered through gavage measured at 6 hrs; type: ADME, organism-based; conditions: read-out: BPR

Row | Compound | bioavailability [1] [%] | bioavailability [2] [%] | Kp at 6 h [3]
1 | O=C1NCN(c2ccccc2)C12CCN([C@@H]1CC[C@H]3CCCc4cccc1c43)CC2 | 1 | 4 | 
2 | NC(=O)C1(c2ccccc2)CC2CCC(C1)N2C(c1ccccc1Cl)c1ccccc1Cl (stereo not drawn) |  |  | 0.43 to 0.59
